Measurements reported in patent US20250376490A1, “C[…]-DERIVED PEPTIDE-NUCLEIC ACID HYBRID MOLECULE FOR TREATING INFECTION CAUSED BY MUTATED CORONAVIRUS” (priority 2022, published 2025).

How the values were obtained:
[1] = test system: pseudotype SARS-COV-2; type: cell-based
[2] = target: RBD-hACE2 binding (Severe acute respiratory syndrome coronavirus 2, UniProt P0DTC2); conditions: 3 μM concentration
[3] = target: SARS-COV-2 RBD (Severe acute respiratory syndrome coronavirus 2, UniProt P0DTC2); conditions: co-incubation with P05DHu and AM 122 antibodies
Method: Specifically, after thermal denaturation and rapid cooling, they were co-incubated with 5 nM RBD beads (final volume: 100 μL) with gentle rotation for 1 hour at room temperature. Beads were washed three times, and resuspended in 100 μL of 1× PBSMT for analysis with CytoFLEX S (Beckman Coulter). The competitive RBD-binding fraction was calculated as the ratio of the competitive mean fluorescence intensity to the uncompetitive (free-binding) mean fluorescence intensity.

| Substance | infection rate with pseudotype SARS-COV-2 (percentage of GFP-expressing infected cells) [1] | inhibition of RBD-hACE2 interaction [2] | RBD binding competition between R7-02 and antibodies [3] | neutralizing efficiency compared to other RBD binders [1] |
| --- | --- | --- | --- | --- |
| LGKGDFR [LGKGDFR peptide] | 12.6% | 11.69% | – | – |
| R7-02 (LGKGDFRK) | 1.9% | – | insignificant | significantly higher or comparable |
